≈ marks a conversion by molar mass, not a printed value.
Experiments:
[1] = tested on: Candida albicans; test: Antifungal activity against Candida albicans MTCC 227 assessed as zone of inhibition at 100 ug/ml after 30 hrs by cup plate method; format: functional; settings: MTCC 227, 30 h, read-out: IZ
[2] = tested on: Candida albicans; test: Antifungal activity against Candida albicans MTCC 227 after 30 hrs by serial dilution method; format: functional; settings: MTCC 227, 30 h
[3] = tested on: Aspergillus flavus; test: Antifungal activity against Aspergillus flavus MTCC 277 assessed as zone of inhibition at 100 ug/ml after 30 hrs by cup plate method; format: functional; settings: MTCC 277, 30 h, read-out: IZ
[4] = tested on: Aspergillus flavus; test: Antifungal activity against Aspergillus flavus MTCC 277 after 30 hrs by serial dilution method; format: functional; settings: MTCC 277, 30 h
[5] = tested on: Aspergillus fumigatus; test: Antifungal activity against Aspergillus fumigatus MTCC 343 assessed as zone of inhibition at 100 ug/ml after 30 hrs by cup plate method; format: functional; settings: MTCC 343, 30 h, read-out: IZ
[6] = tested on: Aspergillus fumigatus; test: Antifungal activity against Aspergillus fumigatus MTCC 343 after 30 hrs by serial dilution method; format: functional; settings: MTCC 343, 30 h
[7] = tested on: Aspergillus niger; test: Antifungal activity against Aspergillus niger MTCC 282 assessed as zone of inhibition at 100 ug/ml after 30 hrs by cup plate method; format: functional; settings: MTCC 282, 30 h, read-out: IZ
[8] = tested on: Aspergillus niger; test: Antifungal activity against Aspergillus niger MTCC 282 after 30 hrs by serial dilution method; format: functional; settings: MTCC 282, 30 h
[9] = tested on: Klebsiella pneumoniae; test: Antibacterial activity against Klebsiella pneumoniae MTCC 432 assessed as zone of inhibition at 100 ug/ml after 14 hrs by cup plate method; format: functional; settings: MTCC 432, 14 h, read-out: IZ
[10] = tested on: Klebsiella pneumoniae; test: Antibacterial activity against Klebsiella pneumoniae MTCC 432 after 14 hrs by serial dilution method; format: functional; settings: MTCC 432, 14 h
[11] = tested on: Salmonella typhi; test: Antibacterial activity against Salmonella typhi MTCC 733 assessed as zone of inhibition at 100 ug/ml after 14 hrs by cup plate method; format: functional, Salmonella enterica subsp. enterica serovar Typhi; settings: Salmonella enterica, MTCC 733, 14 h; read-out: IZ
[12] = tested on: Salmonella typhi; test: Antibacterial activity against Salmonella typhi MTCC 733 after 14 hrs by serial dilution method; format: functional, Salmonella enterica subsp. enterica serovar Typhi; settings: Salmonella enterica, MTCC 733, 14 h
[13] = tested on: Escherichia coli; test: Antibacterial activity against Escherichia coli MTCC 443 assessed as zone of inhibition at 100 ug/ml after 14 hrs by cup plate method; format: functional; settings: MTCC 443, 14 h, read-out: IZ
[14] = tested on: Bacillus subtilis; test: Antibacterial activity against Bacillus subtilis MTCC 441 after 14 hrs by serial dilution method; format: functional; settings: MTCC 441, 14 h
[15] = tested on: Staphylococcus aureus; test: Antibacterial activity against Staphylococcus aureus MTCC 096 assessed as zone of inhibition at 100 ug/ml after 14 hrs by cup plate method; format: functional; settings: MTCC 096, 14 h, read-out: IZ
[16] = tested on: Staphylococcus aureus; test: Antibacterial activity against Staphylococcus aureus MTCC 096 after 14 hrs by serial dilution method; format: functional; settings: MTCC 096, 14 h
[17] = tested on: Escherichia coli; test: Antibacterial activity against Escherichia coli MTCC 443 after 14 hrs by serial dilution method; format: functional; settings: MTCC 443, 14 h
[18] = tested on: Bacillus subtilis; test: Antibacterial activity against Bacillus subtilis MTCC 441 assessed as zone of inhibition at 100 ug/ml after 14 hrs by cup plate method; format: functional; settings: MTCC 441, 14 h, read-out: IZ

| SMILES | zone of inhibition at 100 µg/mL [1] | MIC [2] | zone of inhibition at 100 µg/mL [3] | MIC [4] | zone of inhibition at 100 µg/mL [5] | MIC [6] | zone of inhibition at 100 µg/mL [7] | MIC [8] | zone of inhibition at 100 µg/mL [9] | MIC [10] | zone of inhibition at 100 µg/mL [11] | MIC [12] | zone of inhibition at 100 µg/mL [13] | MIC [14] | zone of inhibition at 100 µg/mL [15] | MIC [16] | MIC [17] | zone of inhibition at 100 µg/mL [18] |
| --- | --- | --- | --- | --- | --- | --- | --- | --- | --- | --- | --- | --- | --- | --- | --- | --- | --- | --- |
| O=c1cc(C(F)(F)F)n(C/C=C/CN2CCCCC2)c2ccc(F)cc12 | 12 mm | 12.5 mg/L (≈ 33.9 µM) | < 10 mm | 25 mg/L (≈ 67.9 µM) | < 10 mm | 25 mg/L (≈ 67.9 µM) | 17 mm | 6.25 mg/L (≈ 17 µM) | 12 mm | 12.5 mg/L (≈ 33.9 µM) | < 10 mm | 25 mg/L (≈ 67.9 µM) | < 10 mm | 12.5 mg/L (≈ 33.9 µM) | 13 mm | 12.5 mg/L (≈ 33.9 µM) | 50 mg/L (≈ 136 µM) | 12 mm |
| O=c1cc(C(F)(F)F)n(CCCCN2CCCCC2)c2ccc(F)cc12 | 15 mm | 6.25 mg/L (≈ 16.9 µM) | 12 mm | 12.5 mg/L (≈ 33.7 µM) | < 10 mm | 25 mg/L (≈ 67.5 µM) | 12 mm | 12.5 mg/L (≈ 33.7 µM) | 12 mm | 12.5 mg/L (≈ 33.7 µM) | < 10 mm | 50 mg/L (≈ 135 µM) | < 10 mm | 25 mg/L (≈ 67.5 µM) | 12 mm | 12.5 mg/L (≈ 33.7 µM) | 50 mg/L (≈ 135 µM) | < 10 mm |
| Cc1ccc2nc(C(F)(F)F)cc(OCCCCN3C(=O)c4ccccc4C3=O)c2c1 | 15 mm | 6.25 mg/L (≈ 14.6 µM) | < 10 mm | 50 mg/L (≈ 117 µM) | 12 mm | 12.5 mg/L (≈ 29.2 µM) | 17 mm | 6.25 mg/L (≈ 14.6 µM) | 15 mm | 6.25 mg/L (≈ 14.6 µM) | 12 mm | 12.5 mg/L (≈ 29.2 µM) | < 10 mm | 6.25 mg/L (≈ 14.6 µM) | 15 mm | 6.25 mg/L (≈ 14.6 µM) | 50 mg/L (≈ 117 µM) | 15 mm |
| O=c1cc(C(F)(F)F)n(C/C=C/CN2CCOCC2)c2ccc(F)cc12 | 15 mm | 6.25 mg/L (≈ 16.9 µM) | < 10 mm | 25 mg/L (≈ 67.5 µM) | < 10 mm | 25 mg/L (≈ 67.5 µM) | 17 mm | 6.25 mg/L (≈ 16.9 µM) | < 10 mm | 25 mg/L (≈ 67.5 µM) | < 10 mm | 50 mg/L (≈ 135 µM) | < 10 mm | 6.25 mg/L (≈ 16.9 µM) | 12 mm | 12.5 mg/L (≈ 33.8 µM) | 25 mg/L (≈ 67.5 µM) | 14 mm |
| Cc1ccc2c(c1)c(=O)cc(C(F)(F)F)n2CCCCN1C(=O)c2ccccc2C1=O | 15 mm | 6.25 mg/L (≈ 14.6 µM) | 12 mm | 12.5 mg/L (≈ 29.2 µM) | < 10 mm | 25 mg/L (≈ 58.4 µM) | 12 mm | 12.5 mg/L (≈ 29.2 µM) | 13 mm | 12.5 mg/L (≈ 29.2 µM) | 13 mm | 12.5 mg/L (≈ 29.2 µM) | < 10 mm | 6.25 mg/L (≈ 14.6 µM) | 15 mm | 6.25 mg/L (≈ 14.6 µM) | 25 mg/L (≈ 58.4 µM) | 15 mm |
| CN1CCN(C/C=C/Cn2c(C(F)(F)F)cc(=O)c3cc(F)ccc32)CC1 | 15 mm | 6.25 mg/L (≈ 16.3 µM) | 12 mm | 12.5 mg/L (≈ 32.6 µM) | 12 mm | 12.5 mg/L (≈ 32.6 µM) | 12 mm | 12.5 mg/L (≈ 32.6 µM) | 12 mm | 12.5 mg/L (≈ 32.6 µM) | 12 mm | 12.5 mg/L (≈ 32.6 µM) | < 10 mm | 6.25 mg/L (≈ 16.3 µM) | 15 mm | 6.25 mg/L (≈ 16.3 µM) | 50 mg/L (≈ 130 µM) | 14 mm |
| O=C1c2ccccc2C(=O)N1CCCCn1c(C(F)(F)F)cc(=O)c2ccccc21 | 17 mm | 6.25 mg/L (≈ 15.1 µM) | < 10 mm | 25 mg/L (≈ 60.3 µM) | < 10 mm | 25 mg/L (≈ 60.3 µM) | 13 mm | 12.5 mg/L (≈ 30.2 µM) | 13 mm | 12.5 mg/L (≈ 30.2 µM) | < 10 mm | 25 mg/L (≈ 60.3 µM) | < 10 mm | 12.5 mg/L (≈ 30.2 µM) | 13 mm | 12.5 mg/L (≈ 30.2 µM) | 50 mg/L (≈ 121 µM) | 12 mm |
| O=C1c2ccccc2C(=O)N1CCCCn1c(C(F)(F)F)cc(=O)c2cc(F)ccc21 | 17 mm | 6.25 mg/L (≈ 14.5 µM) | < 10 mm | 25 mg/L (≈ 57.8 µM) | 12 mm | 12.5 mg/L (≈ 28.9 µM) | 17 mm | 6.25 mg/L (≈ 14.5 µM) | 13 mm | 12.5 mg/L (≈ 28.9 µM) | 13 mm | 12.5 mg/L (≈ 28.9 µM) | < 10 mm | 12.5 mg/L (≈ 28.9 µM) | 15 mm | 6.25 mg/L (≈ 14.5 µM) | 50 mg/L (≈ 116 µM) | 13 mm |
| O=C(O)c1cn(C2CC2)c2cc(N3CCNCC3)c(F)cc2c1=O [CIPROFLOXACIN] | – | – | – | – | – | – | – | – | 18 mm | 6.25 mg/L (≈ 18.9 µM) | 14 mm | – | 18 mm | 6.25 mg/L (≈ 18.9 µM) | 17 mm | – | – | 18 mm |
| Clc1ccc(COC(Cn2ccnc2)c2ccc(Cl)cc2Cl)c(Cl)c1 (centres undefined) [MICONAZOLE] | 17 mm | 6.25 mg/L (≈ 15 µM) | 17 mm | 6.25 mg/L (≈ 15 µM) | 14 mm | 12.5 mg/L (≈ 30 µM) | 17 mm | 6.25 mg/L (≈ 15 µM) | – | – | – | – | – | – | – | – | – | – |
